From ChEMBL document CHEMBL1130670, “Potent bicyclic lactam inhibitors of thrombin: Part I: P3 modifications” (Bioorg Med Chem Lett, 1998) come the findings set out here.

The structures appear in SMILES notation. Some results are limits rather than exact numbers.

Experiment [1] deals with Prothrombin (Rattus norvegicus) (UniProt P18292).
Description: Compound was tested for the antithrombic effect in rat arterial thrombosis model and expressed as activated partial thromboplastin time(PTT)
The target is the same in experiment [2]. This is another data set of the same source.
Description: Compound was tested for the antithrombic effect in rat arterial thrombosis model and expressed as mean occlusion time(MOT)
For experiment [3] the target is unchanged. The source holds these as a separate data set.
Description: Compound was tested for the antithrombic effect in rat arterial thrombosis model and expressed as thrombin time(TT)
The target of the next experiment is Prothrombin (Homo sapiens, UniProt P00734). Nature of the experiment: Binding affinity against thrombin.

Turning to `NC(N)=NCCCC(NC(=O)[C@@H]1CC[C@H]2CN(C(=O)[C@@H](N)Cc3c[nH]c4ccccc34)CC(=O)N21)C(=O)c1nccs1` (stereo in doubt; 34) [listing 1 of 2 here], in experiment [1], the APTT was 188 s. The compound also had an MOT in experiment [2] greater than 60 min. Also, the TT in experiment [3] was determined as 929 s.
As for `N=C(N)NCCCC(NC(=O)[C@@H]1CC[C@H]2CN(C(=O)[C@@H](O)Cc3ccccc3)CC(=O)N21)C(=O)c1nccs1` (some centres undefined), affinity on Prothrombin was put at a Ki of 4.4 nM. Also, the APTT in experiment [1] turned out to be 463 s. The compound also displayed an MOT in experiment [2] greater than 60 min. Further, in experiment [3], the TT amounted to 679 s.
Consider `N=C(N)NCCCC(NC(=O)[C@@H]1CC[C@H]2CN(C(=O)CCc3ccccc3)CC(=O)N21)C(=O)c1nccs1` (some centres undefined), for which, in experiment [1], the APTT worked out at 44.3 s. Further, the MOT in experiment [2] was found to be 42.2 min. For the same compound, the TT in experiment [3] was 381 s.
Consider `N=C(N)NCCCC(NC(=O)[C@@H]1CC[C@H]2CN(C(=O)CCOc3ccccc3)CC(=O)N21)C(=O)c1nccs1` (some centres undefined), for which the affinity at Prothrombin, expressed as Ki, was 5 nM. This compound showed an APTT in experiment [1] of 45.2 s. The MOT in experiment [2] was 47.7 min. Besides, the TT in experiment [3] amounted to 276 s.
On to `N=C(N)NCCCC(NC(=O)[C@@H]1CC[C@H]2CN(C(=O)[C@@H](N)Cc3ccc(O)cc3)CC(=O)N21)C(=O)c1nccs1` (stereo in doubt; 32), for which the Ki (usually a measure of affinity in units of concentration, obtained from inhibition or displacement) on Prothrombin worked out at 18 nM. This counts as double-digit nanomolar.
In experiment [1], `N=C(N)NCCCC(NC(=O)[C@@H]1CC[C@H]2CN(C(=O)c3ccccc3)CC(=O)N21)C(=O)c1nccs1` (some centres undefined) registered an APTT of 25.5 s. The compound also gave an MOT in experiment [2] of 45.8 min. In addition, in experiment [3], the TT worked out at 144 s.
For `N=C(N)NCCCC(NC(=O)[C@@H]1CC[C@H]2CN(C(=O)CCc3ccccc3F)CC(=O)N21)C(=O)c1nccs1` (some centres undefined), at Prothrombin, the affinity, expressed as Ki, was 0.92 nM.
`N=C(N)NCCCC(NC(=O)[C@@H]1CC[C@H]2CN(C(=O)COc3ccccc3)CC(=O)N21)C(=O)c1nccs1` (some centres undefined) gave a Ki on Prothrombin of 16 nM. Besides, the APTT in experiment [1] was determined as 31.5 s. In addition, the MOT in experiment [2] was 37.8 min. In addition, in experiment [3], the TT is 248 s.
With `N=C(N)NCCCC(NC(=O)[C@@H]1CC[C@H]2CN(C(=O)CCc3ccc(Cl)c(Cl)c3)CC(=O)N21)C(=O)c1nccs1` (some centres undefined), at Prothrombin, the inhibition constant Ki came out at 0.106 nM.
Regarding `NC(N)=NCCCC(NC(=O)[C@@H]1CC[C@H]2CN(C(=O)[C@@H](N)Cc3ccc(F)cc3)CC(=O)N21)C(=O)c1nccs1` (some centres undefined), the Ki at Prothrombin was 3 nM. This compound also came in with an APTT in experiment [1] of 44.2 s. This compound also returned an MOT in experiment [2] of 47.7 min. In experiment [3], the TT turned out to be 557 s.
For the compound `N=C(N)NCCCC(NC(=O)[C@@H]1CC[C@H]2CN(C(=O)[C@@H](O)c3ccccc3)CC(=O)N21)C(=O)c1nccs1` (stereo in doubt; 28), the Ki at Prothrombin amounted to 84 nM.
`N=C(N)NCCCC(NC(=O)[C@@H]1CC[C@H]2CN(C(=O)C3Cc4ccccc4CN3)CC(=O)N21)C(=O)c1nccs1` (some centres undefined) displayed a Ki on Prothrombin of 32 nM.
As for `COc1ccc(CCC(=O)N2CC(=O)N3[C@@H](CC[C@H]3C(=O)NC(CCCN=C(N)N)C(=O)c3nccs3)C2)cc1` (some centres undefined), on Prothrombin, the Ki was 0.5 nM. This compound also displayed an APTT in experiment [1] of 55.2 s. This compound returned an MOT in experiment [2] greater than 60 min. The TT in experiment [3] came out at 633 s.
As to `N=C(N)NCCCC(NC(=O)[C@@H]1CC[C@H]2CN(C(=O)CCCc3ccccc3)CC(=O)N21)C(=O)c1nccs1` (some centres undefined), at Prothrombin, the Ki is 1.2 nM. In experiment [1], this compound showed an APTT of 120 s. The MOT in experiment [2] was greater than 60 min. Besides, the TT in experiment [3] stood at 494 s.
At Prothrombin, `N=C(N)NCCCC(NC(=O)[C@@H]1CC[C@H]2CN(C(=O)CCc3cccc4ccccc34)CC(=O)N21)C(=O)c1nccs1` (some centres undefined) returned a Ki of 0.35 nM. The APTT in experiment [1] turned out to be 217 s. For the same compound, the MOT in experiment [2] was found to be 33.2 min. In addition, in experiment [3], the TT was greater than 600 s.
In turn, `Cc1ccc(CCC(=O)N2CC(=O)N3[C@@H](CC[C@H]3C(=O)NC(CCCN=C(N)N)C(=O)c3nccs3)C2)cc1` (some centres undefined) registered a Ki at Prothrombin of 0.5 nM. Further, the APTT in experiment [1] was 88 s. In addition, the MOT in experiment [2] is greater than 60 min. Besides, the TT in experiment [3] was greater than 999 s.
Taken in the same sequence, the figures for `N=C(N)NCCCC(NC(=O)[C@@H]1CC[C@H]2CN(C(=O)CCc3ccccn3)CC(=O)N21)C(=O)c1nccs1` (some centres undefined) were 3 nM, 44.2 s, 47.6 min and 557 s.
In the case of `NC(N)=NCCCC(NC(=O)[C@@H]1CC[C@H]2CN(C(=O)[C@@H](N)Cc3c[nH]c4ccccc34)CC(=O)N21)C(=O)c1nccs1` (stereo in doubt; 33), the Ki on Prothrombin was found to be 75.3 nM.
As for `N=C(N)NCCCC(NC(=O)[C@@H]1CC[C@H]2CN(C(=O)CCc3ccccc3C(F)(F)F)CC(=O)N21)C(=O)c1nccs1` (some centres undefined), the Ki at Prothrombin was determined as 0.5 nM. The same compound had an APTT in experiment [1] of 90 s. For the same compound, the MOT in experiment [2] was greater than 60 min. Further, the TT in experiment [3] is greater than 999 s.
`N=C(N)NCCCC(NC(=O)[C@@H]1CC[C@H]2CN(C(=O)OCc3ccccc3)CC(=O)N21)C(=O)c1nccs1` (some centres undefined) displayed a Ki on Prothrombin of 50 nM.
`N=C(N)NCCCC(NC(=O)[C@@H]1CC[C@H]2CN(C(=O)CCc3ccc4ccccc4c3)CC(=O)N21)C(=O)c1nccs1` (some centres undefined) registered a Ki on Prothrombin of 0.5 nM.
As for `N=C(N)NCCCC(NC(=O)[C@@H]1CC[C@H]2CN(C(=O)CCC3CCCCC3)CC(=O)N21)C(=O)c1nccs1` (some centres undefined), the affinity on Prothrombin corresponds to a Ki of 24 nM. For the same compound, the APTT in experiment [1] was 52.4 s. Besides, the MOT in experiment [2] worked out at 25.4 min. Moreover, the TT in experiment [3] was 320 s.
Compound `N=C(N)NCCCC(NC(=O)[C@@H]1CC[C@H]2CN(C(=O)[C@@H](O)c3ccccc3)CC(=O)N21)C(=O)c1nccs1` (stereo in doubt; 29) [listing 1 of 2 here] came in with an inhibition constant Ki at Prothrombin of 16 nM. This counts as double-digit nanomolar.
In turn, `N=C(N)NCCCC(NC(=O)[C@@H]1CC[C@H]2CN(C(=O)Cc3ccccc3)CC(=O)N21)C(=O)c1nccs1` (some centres undefined) gave a Ki at Prothrombin of 2.5 nM. The APTT in experiment [1] was found to be 79.2 s. This compound also showed an MOT in experiment [2] greater than 60 min. In experiment [3], this compound registered a TT of 387 s.
Take `N=C(N)NCCCC(NC(=O)[C@@H]1CC[C@H]2CN(CCCc3ccccc3)CC(=O)N21)C(=O)c1nccs1` (some centres undefined): on Prothrombin, the affinity corresponds to a Ki of 17 nM. The compound further yielded an APTT in experiment [1] of 30.5 s. In experiment [2], this compound returned an MOT of 28.3 min. Also, the TT in experiment [3] stood at 122 s.
`N=C(N)NCCCC(NC(=O)[C@@H]1CC[C@H]2CN(C(=O)NCc3ccccc3)CC(=O)N21)C(=O)c1nccs1` (some centres undefined) showed a Ki at Prothrombin of 58 nM. That is a double-digit nanomolar value.
`NC(N)=NCCCC(NC(=O)[C@@H]1CC[C@H]2CN(C(=O)[C@@H](N)Cc3ccc(O)cc3)CC(=O)N21)C(=O)c1nccs1` (stereo in doubt; 32) had an APTT in experiment [1] of 76 s. For the same compound, the MOT in experiment [2] was 53 min. The same compound displayed a TT in experiment [3] of 433 s.
In turn, `N=C(N)NCCCC(NC(=O)[C@@H]1CC[C@H]2CN(C(=O)[C@@H](O)c3ccccc3)CC(=O)N21)C(=O)c1nccs1` (stereo in doubt; 29) [listing 2 of 2 here] came in with an APTT in experiment [1] of 49.1 s. Moreover, the MOT in experiment [2] is greater than 60 min. This compound also came in with a TT in experiment [3] of 476 s.
Take `N=C(N)NCCCC(NC(=O)[C@@H]1CC[C@H]2CN(C(=O)[C@@H](N)Cc3ccc(O)cc3)CC(=O)N21)C(=O)c1nccs1` (stereo in doubt; 31): at Prothrombin, the Ki stood at 160 nM. This counts as sub-micromolar.
Regarding `NC(N)=NCCCC(NC(=O)[C@@H]1CC[C@H]2CN(C(=O)[C@@H](N)Cc3c[nH]c4ccccc34)CC(=O)N21)C(=O)c1nccs1` (stereo in doubt; 34) [listing 2 of 2 here], on Prothrombin, the affinity, expressed as Ki, was 0.96 nM.
